Measurements as given in patent US10980765B2, “Isothiocyanatostilbenes as a novel method and product for treating cancer” (BOARD OF SUPERVISORS OF LOUISIANA STATE UNIVERSITY AND …, priority 2015, dated 2021).

How the values were obtained:
[1] = target: wild-type c-Met (Homo sapiens, UniProt P08581); experiment: Phosphorylation inhibition assay (Z′-LYTE Kinase Assay-Tyr6 Peptide), wild-type c-Met; type: biochemical; conditions: cell-free kinase assay, 200 μM ATP; read-out: IC50, activation of wild-type c-Met
Chain of wild-type c-Met (P08581 25-1390): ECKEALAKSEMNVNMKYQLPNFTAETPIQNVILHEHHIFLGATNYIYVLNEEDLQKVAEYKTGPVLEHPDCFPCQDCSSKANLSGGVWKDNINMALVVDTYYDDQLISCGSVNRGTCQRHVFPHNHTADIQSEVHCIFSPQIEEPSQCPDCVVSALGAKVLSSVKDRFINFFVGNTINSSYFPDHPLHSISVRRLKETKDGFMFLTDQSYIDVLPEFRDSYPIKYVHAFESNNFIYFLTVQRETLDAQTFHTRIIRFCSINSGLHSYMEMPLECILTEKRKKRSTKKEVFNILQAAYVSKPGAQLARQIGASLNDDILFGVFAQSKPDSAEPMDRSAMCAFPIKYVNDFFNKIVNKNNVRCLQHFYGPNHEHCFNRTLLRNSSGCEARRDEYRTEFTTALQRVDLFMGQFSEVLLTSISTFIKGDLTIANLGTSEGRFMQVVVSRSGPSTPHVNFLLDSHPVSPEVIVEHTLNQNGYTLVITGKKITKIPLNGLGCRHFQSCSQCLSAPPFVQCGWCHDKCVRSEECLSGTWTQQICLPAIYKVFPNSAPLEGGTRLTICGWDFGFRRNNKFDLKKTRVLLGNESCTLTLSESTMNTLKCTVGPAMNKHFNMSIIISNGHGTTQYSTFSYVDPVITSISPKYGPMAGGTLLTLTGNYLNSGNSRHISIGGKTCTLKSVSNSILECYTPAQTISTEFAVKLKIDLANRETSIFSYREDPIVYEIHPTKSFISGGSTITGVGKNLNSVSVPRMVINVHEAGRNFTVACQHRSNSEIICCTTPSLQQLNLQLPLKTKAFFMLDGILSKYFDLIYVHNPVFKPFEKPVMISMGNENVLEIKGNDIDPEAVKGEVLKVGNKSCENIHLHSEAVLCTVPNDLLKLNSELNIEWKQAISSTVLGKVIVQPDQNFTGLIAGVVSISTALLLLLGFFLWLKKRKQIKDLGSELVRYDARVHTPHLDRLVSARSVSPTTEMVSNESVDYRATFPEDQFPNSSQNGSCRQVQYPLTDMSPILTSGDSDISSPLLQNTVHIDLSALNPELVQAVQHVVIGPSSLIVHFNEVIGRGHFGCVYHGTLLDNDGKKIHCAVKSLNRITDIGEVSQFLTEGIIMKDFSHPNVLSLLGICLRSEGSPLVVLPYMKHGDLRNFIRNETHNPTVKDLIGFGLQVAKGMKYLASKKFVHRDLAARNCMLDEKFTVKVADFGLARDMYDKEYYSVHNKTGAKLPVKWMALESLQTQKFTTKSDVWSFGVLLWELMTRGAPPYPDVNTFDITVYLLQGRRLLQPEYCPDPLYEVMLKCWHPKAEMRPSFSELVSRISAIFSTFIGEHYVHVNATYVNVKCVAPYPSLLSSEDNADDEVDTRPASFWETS
Procedure: Western blot was used to analyze pMet expression. […] Western blot was used to analyze the indicated proteins.
Phosphorylation inhibition assay: Z′-LYTE™ Kinase Assay-Tyr6 Peptide kit (Invitrogen) was used to assess the ability of tested compounds to inhibit c-Met phosphorylation. […] After 1 hour incubation at room temperature, 10 μl development solution containing site-specific protease was added to each well. Incubation was continued for 1 hour. The reaction was then stopped, and the fluorescent signal ratio of 445 nm (coumarin)/520 nm (fluorescein) was determined on a plate reader (BioTek FLx800™), which reflects the peptide substrate cleavage status and/or the kinase inhibitory activity in the reaction. […] The IC50 value for each compound was calculated by nonlinear regression of log concentration versus % c-Met phosphorylation ±S.E.M., implemented in GraphPad Prism version 5.0 (GraphPad Software, CA, USA).

[2] = system: DU145 cells; experiment: Wound healing; type: cell-based
Procedure: Cells were fixed and stained for actin. Representative images are shown. […] Data are shown as mean±S.E.M.; n=3.
(§1) For invasion (FIGS. 4C and 4D), wounded cells were overlaid with Matrigel diluted 1:5 in serum-free media; n=3.
(§2) Wound healing and invasion: DU145 cells were grown to ˜100% confluency prior to wounding with the IncuCyte™ WoundMaker™ (Essen Bioscience; Ann Arbor, Mich.) and washed once with complete media. For invasion, cells were covered with Matrigel diluted 1:5 in serum-free RPMI following wounding. […] Images were taken every 4 hours with the IncuCyte™ ZOOM imaging system (Essen Bioscience). Quadruplicate replicates were used in each experiment. Data are presented as percent wound density ±standard error of the mean (S.E.M.).

[3] = system: DU145 spheroids; experiment: 3D spheroid proliferation; type: cell-based; conditions: 33 ng/mL HGF, Matrigel, 72 hours
Procedure: Data are shown as the percent change in growth from T=0 to T=72 hours. For each of the six independent variables in each bar graph, a representative image at the 72 hour time point is shown. The six corresponding images below each respective bar graph
3D spheroid proliferation: Prior to seeding, cells were incubated with 2.5 ng/μl CellTracker Red (Life Technologies) in complete DMEM lacking Phenol Red for 5 minutes at room temperature then centrifuged at 1000 RPM for 5 minutes. […] The mixture of cells, treatments, and Matrigel in complete media was seeded at 2000 cells/well in a 96 well plate. The plate was centrifuged at 1000 RPM for 3 minutes to collect the cells into the bottom of the plate. Spheroid growth was imaged for up to 80 hours and analyzed for average red object area using the IncuCyte™ ZOOM software. Data are shown as percent change in spheroid growth between TO and […] with HGF normalized to 100% change in growth. Images were captured by the IncuCyte™ ZOOM imaging system and representative 10× images are shown.

[4] = system: MDA-MB-231/GFP human breast cancer cells; experiment: Xenograft study, orthotopic breast tumor growth; type: in vivo, Athymic nude mice; conditions: 5 mg/kg then 10 mg/kg i.p.
Source text: (§3) Data are shown as average+S.E.M., *p<0.05.
(§4) Xenograft studies: All animal experiments were approved by the Institutional Animal Care and Use Committee, University of Louisiana at Monroe, and were handled in strict accordance with good animal practice as defined by the NIH guidelines. Athymic nude mice (Foxn1^nu/Foxn1^+, 4-5 weeks, female) were purchased from Harlan (Indianapolis, Ind.). The mice had free access to standard pellet food and water. The animals were acclimated to animal house facility conditions at a temperature of 18-25° C., with a relative humidity of 55 to 65% and a 12 h light/dark cycle, for one week prior to the experiments. MDA-MB-231/GFP human breast cancer cells were cultured and resuspended in serum-free DMEM medium (20 μl). After anesthesia, cell suspensions (1×10^6 cells/20 μl) were inoculated subcutaneously into the second mammary gland fat pad just beneath the nipple of each animal to generate orthotopic breast tumors. […] The mice were monitored by measuring tumor volume, body weight, and clinical observation. Tumor volume (V) was calculated by V=L/2×W^2, where L was the length and W was the width of tumors. The results are presented as average ±S.E.M. Differences among various treatment groups were determined by the analysis of variance (ANOVA) followed by Dunnett's test using PASW statistics version 18. […]

[5] = system: Cells; experiment: 2D proliferation (Cell Titer Blue); type: cell-based; conditions: 24-72 hours
Procedure: A TO timepoint was also measured. For each timepoint, cells were exposed to Cell Titer Blue reagent (Promega) for 1 hour at 37° C. 5% CO2. Experiments were performed with quadruplicate replicates. Fluorescence was measured using a BioTek Synergy 4 plate reader with Gen5 software.

[6] = Xenograft study, tolerability (body weight, clinical observation); type: in vivo, Athymic nude mice
Source text: as §3, §4

[7] = system: DU145 cells; experiment: Invasion through Matrigel; type: cell-based; conditions: indicated concentrations; 33 ng/mL HGF; Matrigel 1:5
Procedure: as §1, §2

[8] = system: protein translocation across the ER membrane; conditions: cited from earlier work
[9] = system: matrix metalloproteinase release; conditions: cited from earlier work
[10] = system: Akt; experiment: Western blot of downstream Akt (phospho-Akt) in HGF-treated DU145 cells; type: cell-based; conditions: ˜8 μM compound, 33 ng/ml HGF 20 min, serum-free
Procedure: Western blot analysis: Cells were grown to ˜70% confluency prior to treatment. Cells were serum-starved in serum-free media for 30 minutes prior to treatment in complete media or serum-free media for the indicated times. Cell lysates were collected in Laemmli (125 mM Tris, 4% SDS, 0.01% bromophenol blue, 30% sucrose) containing 0.5% β-mercaptoethanol and boiled ˜8 minutes. Primary antibodies include: phospho-c-Met (Y1234/1235), phospho-Akt (S473), pEGFR […], pIGF-IRβ (Y1135/1136) (Cell Signaling Technology; Beverly, Mass.); α-actin (Sigma-Aldrich), c-Met (C-28) (Life Technologies). Secondary antibodies include: horseradish peroxidase-conjugated anti-rabbit and anti-mouse (GE Healthcare; Pittsburgh, Pa.). ECL 2 was used for chemiluminescent detection (Thermo Scientific; Rockford, Ill.). Densitometry was calculated using ImageJ (NIH).

[11] = system: succinic dehydrogenase; conditions: cited from earlier work

O=S(=O)(O)c1cc(N=C=S)ccc1C=Cc1ccc(N=C=S)cc1S(=O)(=O)O [DIDS, 4,4′-Diisothiocyanatostilbene-2,2′-disulfonic acid]
IC50 [1]: 300 nM
HGF-induced wound healing ([2]; 4 μM DIDS or 25 μM H2DIDS, 33 ng/ml HGF): significantly reduced
EGF-mediated wound healing ([2]; 4 μM DIDS or 25 μM H2DIDS, 100 ng/ml EGF): minimal effects
HGF-induced wound healing, dose response ([2]; indicated concentrations, 33 ng/mL HGF): reduce HGF-induced wound healing in a dose response manner
lowest concentration with some inhibitory effects on HGF-induced spheroid growth [3]: 40 nM
decrease of HGF-induced DU145 spheroid growth ([3]; 5 μM compound): ~60%
tumor size (caliper) ([4]; 3×/week): began to reduce tumor size towards the end of the experiment
overall tumor weight at necropsy ([4]; end of experiment, *p<0.05): Differences in overall tumor weight were evident
proliferation in complete media in 2D assay ([5]; complete media): minimal effects
serum-free proliferation in 2D assay ([5]; serum-free media): minimal effects
signs of toxicity ([6]; 5 mg/kg intraperitoneally, ˜2 weeks, mice): No obvious signs of toxicity
body weight compared to DMSO control ([6]; 5 mg/kg then 10 mg/kg i.p., 3×/week): no change in body weight
HGF-induced invasion through Matrigel [7]: inhibited HGF-induced invasion through Matrigel in a dose-dependent manner
concentration inhibiting protein translocation across the ER membrane [8]: ≥ 400 µM
concentration inhibiting matrix metalloproteinase release [9]: ≥ 400 µM
reduction of downstream Akt [10]: ~90%
concentration reducing activity of succinic dehydrogenase [11]: low micromolar concentrations
